Laboratory results as given in patent publication US20250381243A1, “HETEROCYCLES AND USES THEREOF” (Kumquat Biosciences Inc., priority 2022, published 2025).
Like-named read-outs stand apart in the source and are kept apart here.

System: A549 cells
Assay: Cell proliferation assay (CellTiter-Glo), cells with K-Ras G12S mutation
Format: cell-based
Settings: Homo sapiens, read-out: Inhibition of A549 Cells (IC50)
Procedure: A549 (ATCC CRL-185) and LS123 (ATCC CRL-255) cell lines comprise a G12S mutation and can be used to assess Ras cellular signaling in vitro, e.g., in response to treatment with a compound described herein. A549 culture medium is prepared with RPMI-1640 and 10% heat-inactivated FBS. LS123 culture medium is prepared with RPMI-1640 and 10% heat-inactivated FBS. A CellTiter-Glo (CTG) luminescent based assay (Promega) is used to assess growth of the cells, as a measurement of the ability of the compounds herein to inhibit Ras signaling in the cells. The cells (e.g., 800 per well) are seeded in their respective culture medium in standard tissue culture-treated 384-well format plates (Falcon #08-772-116) or ultra-low attachment surface 384-well format plates (S-Bio #MS-9384WZ). The day after plating, cells are treated with a dilution series (e.g., a 10 point 3-fold dilution series) of the compounds herein (e.g., approximately 40 μl final volume per well). Cell viability can be monitored (e.g., approximately 6 days later) according to the manufacturer's recommended instructions, where CellTiter-Glo reagent is added (e.g., approximately 10 μl), vigorously mixed, covered, and placed on a plate shaker (e.g., approximately for 20 min) to ensure sufficient cell lysis prior to assessment of luminescent signal. The IC50 values are determined using the four parameter fit. The resulting IC50 value is a measurement of the ability of the test compound to reduce cell growth of Ras-driven cells (e.g., tumor cell lines) in vitro and/or in vivo.

| SMILES | IC50 (≤500 nM) [nM] | IC50 (500 nM to 5 μM (mixed units)) [nM] |
| --- | --- | --- |
| N#Cc1c(N)sc2c(F)ccc(-c3c(Cl)cc4c(N5CCC[C@@]6(C5)CN(C(=O)n5cnc(Cl)n5)[C@@H]6C5CCC5)nc(OC[C@@]56CCCN5C[C@H](F)C6)nc4c3F)c12 [Compound 133, 2-amino-4-(6-chloro-4-((1R,4R)-2-(3-chloro-1H-1,2,4-triazole-1-carbonyl)-1-cyclobutyl-2,6-diazaspiro[3.5]nonan-6-yl)-8-fluoro-2-(((2R,7aS)-2-fluorotetrahydro-1H-pyrrolizin-7a(5H)-yl)methoxy)quinazolin-7-yl)-7-fluorobenzo[b]thiophene-3-carbonitrile] | ≤ 500 | – |
| CC(C)[C@H]1N(C(=O)n2cnc(Cl)n2)C[C@@]12CN(c1nc(OC[C@@]34CCCN3C[C@H](F)C4)nc3c(F)c(-c4ccc(F)c5sc(N)c(C#N)c45)c(Cl)cc13)CCO2 [Compound 134, 2-amino-4-(6-chloro-4-((1R,4S)-2-(3-chloro-1H-1,2,4-triazole-1-carbonyl)-1-isopropyl-5-oxa-2,8-diazaspiro[3.5]nonan-8-yl)-8-fluoro-2-(((2R,7aS)-2-fluorotetrahydro-1H-pyrrolizin-7a(5H)-yl)methoxy)quinazolin-7-yl)-7-fluorobenzo[b]thiophene-3-carbonitrile] | ≤ 500 | – |
| N#Cc1c(N)sc2c(F)ccc(-c3c(Cl)cc4c(N5CCC(N(C(=O)n6cncn6)C6CC6)C5)nc(OC[C@@]56CCCN5C[C@H](F)C6)nc4c3F)c12 (stereo partly drawn) [Compound 135, N-(1-(7-(2-amino-3-cyano-7-fluorobenzo[b]thiophen-4-yl)-6-chloro-8-fluoro-2-(((2R,7aS)-2-fluorotetrahydro-1H-pyrrolizin-7a(5H)-yl)methoxy)quinazolin-4-yl)pyrrolidin-3-yl)-N-cyclopropyl-1H-1,2,4-triazole-1-carboxamide] | ≤ 500 | – |
| C=CCN(C[C@@H]1CN(C(=O)n2cnc(F)n2)[C@@H]1C1(C)CC1)c1nc(OC[C@@]23CCCN2C[C@H](F)C3)nc2c(F)c(-c3ccc(F)c4sc(N)c(C#N)c34)c(Cl)cc12 [Compound 136, 4-(4-(allyl(((2S,3R)-1-(3-fluoro-1H-1,2,4-triazole-1-carbonyl)-2-(1-methylcyclopropyl)azetidin-3-yl)methyl)amino)-6-chloro-8-fluoro-2-(((2R,7aS)-2-fluorotetrahydro-1H-pyrrolizin-7a(5H)-yl)methoxy)quinazolin-7-yl)-2-amino-7-fluorobenzo[b]thiophene-3-carbonitrile] | ≤ 500 | – |
| N#Cc1c(N)sc2c(F)ccc(-c3c(Cl)cc4c(N5CCC(N(C(=O)n6cnc(Cl)n6)C6CC6)C5)nc(OC[C@@]56CCCN5C[C@H](F)C6)nc4c3F)c12 (stereo partly drawn) [Compound 143, N-(1-(7-(2-amino-3-cyano-7-fluorobenzo[b]thiophen-4-yl)-6-chloro-8-fluoro-2-(((2R,7aS)-2-fluorotetrahydro-1H-pyrrolizin-7a(5H)-yl)methoxy)quinazolin-4-yl)pyrrolidin-3-yl)-3-chloro-N-cyclopropyl-1H-1,2,4-triazole-1-carboxamide] | ≤ 500 | – |
| N#CCCN(C(=O)n1cncn1)C1CCN(c2nc(OC[C@@]34CCCN3C[C@H](F)C4)nc3c(F)c(-c4ccc(F)c5sc(N)c(C#N)c45)c(Cl)cc23)C1 (stereo partly drawn) [Compound 145, N-(1-(7-(2-amino-3-cyano-7-fluorobenzo[b]thiophen-4-yl)-6-chloro-8-fluoro-2-(((2R,7aS)-2-fluorotetrahydro-1H-pyrrolizin-7a(5H)-yl)methoxy)quinazolin-4-yl)pyrrolidin-3-yl)-N-(2-cyanoethyl)-1H-1,2,4-triazole-1-carboxamide] | – | 500 to 5000 |

Second part, the compound after the results:

| IC50 (≤500 nM) [nM] | IC50 (500 nM to 5 μM (mixed units)) [nM] | SMILES |
| --- | --- | --- |
| ≤ 500 | – | COCC1([C@H]2N(C(=O)n3cnc(F)n3)C[C@]23CC[C@H](C)N(c2nc(OC[C@@]45CCCN4C[C@H](F)C5)nc4c(F)c(-c5ccc(F)c6sc(N)c(C#N)c56)c(Cl)cc24)C3)CC1 [Compound 129, 2-amino-4-(6-chloro-8-fluoro-4-((1S,4R,7S)-2-(3-fluoro-1H-1,2,4-triazole-1-carbonyl)-1-(1-(methoxymethyl)cyclopropyl)-7-methyl-2,6-diazaspiro[3.5]nonan-6-yl)-2-(((2R,7aS)-2-fluorotetrahydro-1H-pyrrolizin-7a(5H)-yl)methoxy)quinazolin-7-yl)-7-fluorobenzo[b]thiophene-3-carbonitrile] |
| ≤ 500 | – | CN(C[C@@H]1CN(C(=O)n2cnc(F)n2)[C@@H]1C1(C)CC1)c1nc(OC[C@@]23CCCN2C[C@H](F)C3)nc2c(F)c(-c3ccc(F)c4sc(N)c(C#N)c34)c(Cl)cc12 [Compound 130, 2-amino-4-(6-chloro-8-fluoro-4-((((2S,3R)-1-(3-fluoro-1H-1,2,4-triazole-1-carbonyl)-2-(1-methylcyclopropyl)azetidin-3-yl)methyl)(methyl)amino)-2-(((2R,7aS)-2-fluorotetrahydro-1H-pyrrolizin-7a(5H)-yl)methoxy)quinazolin-7-yl)-7-fluorobenzo[b]thiophene-3-carbonitrile] |
| ≤ 500 | – | CC[C@H]1N(C(=O)n2cnc(Cl)n2)C[C@]12CCCCN(c1nc(OC[C@@]34CCCN3C[C@H](F)C4)nc3c(F)c(-c4ccc(F)c5sc(N)c(C#N)c45)c(Cl)cc13)C2 [Compound 131, 2-amino-4-(6-chloro-4-((1R,4R)-2-(3-chloro-1H-1,2,4-triazole-1-carbonyl)-1-ethyl-2,6-diazaspiro[3.6]decan-6-yl)-8-fluoro-2-(((2R,7aS)-2-fluorotetrahydro-1H-pyrrolizin-7a(5H)-yl)methoxy)quinazolin-7-yl)-7-fluorobenzo[b]thiophene-3-carbonitrile] |
| ≤ 500 | – | CC(C)[C@H]1N(C(=O)n2cnc(Cl)n2)C[C@]12C[C@@H](CC#N)CN(c1nc(OC[C@@]34CCCN3C[C@H](F)C4)nc3c(F)c(-c4ccc(F)c5sc(N)c(C#N)c45)c(Cl)cc13)C2 [Compound 137, 2-amino-4-(6-chloro-4-((1R,4R,8S)-2-(3-chloro-1H-1,2,4-triazole-1-carbonyl)-8-(cyanomethyl)-1-isopropyl-2,6-diazaspiro[3.5]nonan-6-yl)-8-fluoro-2-(((2R,7aS)-2-fluorotetrahydro-1H-pyrrolizin-7a(5H)-yl)methoxy)quinazolin-7-yl)-7-fluorobenzo[b]thiophene-3-carbonitrile] |
| ≤ 500 | – | CC(C)[C@H]1N(C(=O)n2cnc(C(F)F)n2)C[C@@]12CN(c1nc(OC[C@@]34CCCN3C[C@H](F)C4)nc3c(F)c(-c4ccc(F)c5sc(N)c(C#N)c45)c(Cl)cc13)CCO2 [Compound 138, 2-amino-4-(6-chloro-4-((1R,4S)-2-(3-(difluoromethyl)-1H-1,2,4-triazole-1-carbonyl)-1-isopropyl-5-oxa-2,8-diazaspiro[3.5]nonan-8-yl)-8-fluoro-2-(((2R,7aS)-2-fluorotetrahydro-1H-pyrrolizin-7a(5H)-yl)methoxy)quinazolin-7-yl)-7-fluorobenzo[b]thiophene-3-carbonitrile] |
| – | 500 to 5000 | CN(C(=O)n1cncn1)C1CN(c2nc(OC[C@@]34CCCN3C[C@H](F)C4)nc3c(F)c(-c4ccc(F)c5sc(N)c(C#N)c45)c(Cl)cc23)CC12CC2 (stereo partly drawn) [Compound 140, N-(5-(7-(2-amino-3-cyano-7-fluorobenzo[b]thiophen-4-yl)-6-chloro-8-fluoro-2-(((2R,7aS)-2-fluorotetrahydro-1H-pyrrolizin-7a(5H)-yl)methoxy)quinazolin-4-yl)-5-azaspiro[2.4]heptan-7-yl)-N-methyl-1H-1,2,4-triazole-1-carboxamide] |
| ≤ 500 | – | CC(C)[C@H]1N(C(=O)n2cnc(F)n2)C[C@]12CCCCN(c1nc(OC[C@@]34CCCN3C[C@H](F)C4)nc3c(F)c(-c4ccc(F)c5sc(N)c(C#N)c45)c(Cl)cc13)C2 [Compound 141, 2-amino-4-(6-chloro-8-fluoro-4-((1R,4R)-2-(3-fluoro-1H-1,2,4-triazole-1-carbonyl)-1-isopropyl-2,6-diazaspiro[3.6]decan-6-yl)-2-(((2R,7aS)-2-fluorotetrahydro-1H-pyrrolizin-7a(5H)-yl)methoxy)quinazolin-7-yl)-7-fluorobenzo[b]thiophene-3-carbonitrile] |
| ≤ 500 | – | CC(C)[C@H]1N(C(=O)n2cnc(Cl)n2)C[C@]12CCCCN(c1nc(OC[C@@]34CCCN3C[C@H](F)C4)nc3c(F)c(-c4ccc(F)c5sc(N)c(C#N)c45)c(Cl)cc13)C2 [Compound 142, 2-amino-4-(6-chloro-4-((1R,4R)-2-(3-chloro-1H-1,2,4-triazole-1-carbonyl)-1-isopropyl-2,6-diazaspiro[3.6]decan-6-yl)-8-fluoro-2-(((2R,7aS)-2-fluorotetrahydro-1H-pyrrolizin-7a(5H)-yl)methoxy)quinazolin-7-yl)-7-fluorobenzo[b]thiophene-3-carbonitrile] |
| ≤ 500 | – | CC(C)[C@@H]1[C@H](CN(C)c2nc(OC[C@@]34CCCN3C[C@H](F)C4)nc3c(F)c(-c4ccc(F)c5sc(N)c(C#N)c45)c(Cl)cc23)CN1C(=O)n1cnc(F)n1 [Compound 144, 2-amino-4-(6-chloro-8-fluoro-4-((((2R,3R)-1-(3-fluoro-1H-1,2,4-triazole-1-carbonyl)-2-isopropylazetidin-3-yl)methyl)(methyl)amino)-2-(((2R,7aS)-2-fluorotetrahydro-1H-pyrrolizin-7a(5H)-yl)methoxy)quinazolin-7-yl)-7-fluorobenzo[b]thiophene-3-carbonitrile] |
